“And” between values parts separate entries of the source, which are not always exact repeats. Equal values may be shown once. Read-outs that look alike come from different tables or passages of the source.
Key:
Parameters in all cases: host or cells: CHO cells, stably transfected
[1] = target: T1, M4 muscarinic receptor (Homo sapiens, UniProt P08173); experiment: inhibition of forskolin-stimulated cAMP, M4 CHO cells (M4Gi); assay type: cell-based; settings: for Emax: CHO, read-out: E′MAX; for Kd: read-out: pKA (converted); for EC50: read-out: pEC50 (converted)
T1 sequence (P08173 1-479): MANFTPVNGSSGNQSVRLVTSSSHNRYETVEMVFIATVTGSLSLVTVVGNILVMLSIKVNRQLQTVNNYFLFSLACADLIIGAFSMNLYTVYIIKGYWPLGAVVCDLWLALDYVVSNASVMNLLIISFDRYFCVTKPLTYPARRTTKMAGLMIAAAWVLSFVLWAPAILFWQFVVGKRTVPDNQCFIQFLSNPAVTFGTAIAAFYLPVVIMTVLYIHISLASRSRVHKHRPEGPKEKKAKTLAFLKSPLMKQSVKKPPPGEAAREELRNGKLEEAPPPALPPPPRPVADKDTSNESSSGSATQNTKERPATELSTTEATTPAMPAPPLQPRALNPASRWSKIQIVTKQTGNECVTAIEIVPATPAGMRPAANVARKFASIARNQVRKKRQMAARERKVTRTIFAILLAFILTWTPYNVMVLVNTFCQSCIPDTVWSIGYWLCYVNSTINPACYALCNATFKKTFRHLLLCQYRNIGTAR

[2] = target: T2, M2 muscarinic receptor (Homo sapiens, UniProt P08172); experiment: [3H]NMS competition binding, M2 CHO membranes; settings: competition with 1 nM [3H]NMS; read-out: Inhibition constants (Ki) as negative logarithms, M2 (converted)
T2 sequence (P08172 1-466): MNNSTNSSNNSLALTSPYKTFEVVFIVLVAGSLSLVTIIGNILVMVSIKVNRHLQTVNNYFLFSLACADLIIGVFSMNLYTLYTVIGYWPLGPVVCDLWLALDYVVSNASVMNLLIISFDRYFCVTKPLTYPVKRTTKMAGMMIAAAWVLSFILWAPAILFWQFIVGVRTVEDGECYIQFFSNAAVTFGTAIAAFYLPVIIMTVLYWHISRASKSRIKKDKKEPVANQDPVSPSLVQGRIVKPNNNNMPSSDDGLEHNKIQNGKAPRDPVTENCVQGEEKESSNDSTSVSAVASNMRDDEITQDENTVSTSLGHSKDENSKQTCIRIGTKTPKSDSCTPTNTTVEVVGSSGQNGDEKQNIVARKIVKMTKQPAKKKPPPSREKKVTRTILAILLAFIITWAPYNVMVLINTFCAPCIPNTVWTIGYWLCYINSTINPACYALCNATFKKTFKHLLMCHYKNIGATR

[3] = target: T3, M1 muscarinic receptor (Homo sapiens, UniProt P11229); experiment: [3H]NMS competition binding, M1 CHO membranes; settings: competition with 1 nM [3H]NMS; read-out: Inhibition constants (Ki) as negative logarithms, M1 (converted)
T3 sequence (P11229 1-460): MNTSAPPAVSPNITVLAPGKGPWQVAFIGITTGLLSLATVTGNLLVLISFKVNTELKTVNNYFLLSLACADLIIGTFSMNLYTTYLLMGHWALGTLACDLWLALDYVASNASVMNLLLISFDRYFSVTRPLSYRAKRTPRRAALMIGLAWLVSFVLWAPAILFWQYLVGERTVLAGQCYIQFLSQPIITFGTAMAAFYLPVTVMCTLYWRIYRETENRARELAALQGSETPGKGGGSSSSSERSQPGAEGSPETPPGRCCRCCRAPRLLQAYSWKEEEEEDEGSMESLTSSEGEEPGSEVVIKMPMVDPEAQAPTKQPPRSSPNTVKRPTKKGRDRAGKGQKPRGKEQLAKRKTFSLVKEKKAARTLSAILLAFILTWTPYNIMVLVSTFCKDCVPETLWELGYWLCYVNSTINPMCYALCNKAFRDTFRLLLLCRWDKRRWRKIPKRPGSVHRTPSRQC

[4] = target: T4, M5 muscarinic receptor (Homo sapiens, UniProt P08912); experiment: [3H]NMS competition binding, M5 CHO membranes; settings: competition with 1 nM [3H]NMS; read-out: Inhibition constants (Ki) as negative logarithms, M5 (converted)
T4 sequence (P08912 1-532): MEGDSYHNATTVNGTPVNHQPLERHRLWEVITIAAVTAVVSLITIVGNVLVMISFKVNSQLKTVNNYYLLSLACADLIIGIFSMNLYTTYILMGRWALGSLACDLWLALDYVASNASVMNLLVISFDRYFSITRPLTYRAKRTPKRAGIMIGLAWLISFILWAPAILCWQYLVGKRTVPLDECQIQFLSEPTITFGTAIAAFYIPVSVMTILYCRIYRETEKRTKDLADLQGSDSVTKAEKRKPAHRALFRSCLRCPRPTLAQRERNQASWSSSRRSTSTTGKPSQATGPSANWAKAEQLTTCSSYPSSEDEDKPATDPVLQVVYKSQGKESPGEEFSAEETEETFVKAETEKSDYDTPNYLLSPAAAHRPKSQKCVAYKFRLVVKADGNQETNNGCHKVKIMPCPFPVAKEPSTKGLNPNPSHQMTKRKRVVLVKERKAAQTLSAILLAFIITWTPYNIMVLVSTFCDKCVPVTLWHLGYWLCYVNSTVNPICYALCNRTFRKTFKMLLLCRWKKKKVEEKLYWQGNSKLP

[5] = target: T1, M4 muscarinic receptor; experiment: [3H]NMS competition binding, M4 CHO membranes; settings: competition with 1 nM [3H]NMS; read-out: Inhibition constants (Ki) as negative logarithms, M4 (converted)
[6] = target: M3 muscarinic receptor (Homo sapiens, UniProt P20309); experiment: accumulation of IPX, M3 CHO cells (M3Gq); assay type: cell-based; settings: for Kd: read-out: pKA (converted); for EC50: read-out: pEC50 (converted)
[7] = target: T4, M5 muscarinic receptor; experiment: accumulation of IPX, M5 CHO cells (M5Gq); assay type: cell-based; settings: for EC50: read-out: pEC50 (converted)
[8] = M4 (↓cAMP), preferential response, Table 7
[9] = M4 (↓cAMP), preferential response, Table 7, operational efficacy
[10] = M4 (↓cAMP), preferential response, Table 7, operational model
[11] = M4 (↓cAMP), preferential response, relative to carbachol, Tables 2, 3, 7
[12] = M4 (↓cAMP), preferential response, to carbachol, Tables 2, 3, 7
[13] = M3 (↑IPX), preferential response, Table 7
[14] = M3 (↑IPX), preferential response, Table 7, operational efficacy
[15] = M3 (↑IPX), preferential response, Table 7, operational model
[16] = M3 (↑IPX), preferential response, relative to carbachol, Tables 2, 3, 7
[17] = M3 (↑IPX), preferential response, to carbachol, Tables 2, 3, 7
[18] = M5 (↑IPX), preferential response, Table 7
[19] = M5 (↑IPX), preferential response, relative to carbachol, Tables 2, 3, 7

Sequence of M3 muscarinic receptor (P20309 whole entry): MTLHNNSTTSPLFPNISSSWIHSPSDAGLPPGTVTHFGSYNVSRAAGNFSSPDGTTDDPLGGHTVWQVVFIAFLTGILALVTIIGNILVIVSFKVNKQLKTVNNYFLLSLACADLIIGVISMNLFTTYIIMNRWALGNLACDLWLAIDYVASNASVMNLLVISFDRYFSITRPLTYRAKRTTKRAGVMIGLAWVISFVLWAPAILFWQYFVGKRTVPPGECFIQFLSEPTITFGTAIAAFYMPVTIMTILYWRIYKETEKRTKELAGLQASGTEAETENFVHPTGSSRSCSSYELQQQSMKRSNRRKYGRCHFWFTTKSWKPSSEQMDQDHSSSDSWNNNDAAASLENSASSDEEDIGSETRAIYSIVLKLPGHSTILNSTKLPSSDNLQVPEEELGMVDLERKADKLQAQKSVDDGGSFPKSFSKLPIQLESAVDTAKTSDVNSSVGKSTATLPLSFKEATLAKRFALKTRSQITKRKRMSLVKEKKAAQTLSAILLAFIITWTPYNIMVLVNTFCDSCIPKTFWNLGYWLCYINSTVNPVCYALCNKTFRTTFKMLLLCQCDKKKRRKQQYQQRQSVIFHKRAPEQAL

SMILES | Emax [1, 8] | τ [1, 9] | Kd [1, 10] | EC50 [1, 8] | RAi [1, 11] | Δlog(τ/KA) [1, 12] | Ki [2] | Ki [3] | Ki [4] | Ki [5] | E′MAX [6, 13] | τ [6, 14] | Kd [6, 15] | EC50 [6, 13] | RAi [6, 16] | Δlog(τ/KA) [6, 17] | E′MAX [7, 18] | EC50 [7, 18] | RAi [7, 19] | other results
C[N+]1(Cc2cccs2)CC=CCC1.[I-] (centres unmarked) [Compound 7A, 1-methyl-1-[(thiophen-2-yl)methyl]-1,2,3,6-tetrahydropyridin-1-ium iodide] | 39 ± 2% | 0.78 ± 0.08 | 3.16 µM | 1.78 µM | 0.0209 ± 0.0011 | 1.58 ± 0.22 | 7.94 µM | 11.2 µM | 10 µM | 7.94 µM | 3.0 ± 0.3 fold over basal | 0.08 ± 0.01 | 3.16 µM | 3.16 µM | 0.011 ± 0.001 | 1.94 ± 0.20 | 1.28 ± 0.05 fold over basal | 7.94 µM | 0.0007 ± 0.0002 and 0.0007 ± 0.0001 | E′MAX ([1]; M4Gi (↓cAMP), Table 8): 39 ± 2 % inhibition; τ ([1]; M4Gi (↓cAMP), Table 8): 0.78 ± 0.08; RAi ([1]; M4Gi (↓cAMP), Table 8, relative to carbachol): 0.0209 ± 0.0011; Δlog(τ/KA) ([1]; M4Gi (↓cAMP), Table 8, to carbachol): 1.58 ± 0.22; EC50 ([1]; M4Gi (↓cAMP), Table 8): 1.78 µM; Kd ([1]; M4Gi (↓cAMP), Table 8): 3.16 µM; E′MAX ([6]; M3Gq (↑IPX), Table 8): 2.6 ± 0.3 fold over basal; τ ([6]; M3Gq (↑IPX), Table 8): 0.06 ± 0.01; RAi ([6]; M3Gq (↑IPX), Table 8, relative to carbachol): 0.0084 ± 0.0011; Δlog(τ/KA) ([6]; M3Gq (↑IPX), Table 8, to carbachol): 2.08 ± 0.34; EC50 ([6]; M3Gq (↑IPX), Table 8): 3.98 µM; Kd ([6]; M3Gq (↑IPX), Table 8): 3.98 µM; E′MAX ([7]; M5Gq (↑IPX), Table 8): 1.26 ± 0.05 fold over basal; RAi ([7]; M5Gq (↑IPX), Table 8, relative to carbachol): 0.0006 ± 0.0002; EC50 ([7]; M5Gq (↑IPX), Table 8): 7.94 µM
Brc1ccc(CN2CC=CCC2)s1.Cl [Compound 6C, 1-[(5-bromothiophen-2-yl)methyl]-1,2,3,6-tetrahydropyridin-1-ium chloride] | 13 ± 1% | 0.38 ± 0.04 | 2.51 µM | 2.14 µM | 0.0041 ± 0.005 | 2.13 ± 0.12 | 10 µM | 7.59 µM | 12.9 µM | 12.6 µM | 1.8 ± 0.1 fold over basal | 0.03 ± 0.01 | 3.98 µM | 5.01 µM | 0.0029 ± 0.0004 | 2.53 ± 0.33 | 1.36 ± 0.08 fold over basal | 7.59 µM | 0.0009 ± 0.0003 | τ ([7]; M5 (↑IPX), preferential response, Table 7, operational efficacy): 0.02 ± 0.01; Kd ([7]; M5 (↑IPX), preferential response, Table 7, operational model, read-out: pKA (converted)): 7.94 µM; Δlog(τ/KA) ([7]; M5 (↑IPX), preferential response, to carbachol, Tables 2, 3, 7): 3.03 ± 0.95
